According to US7183383B2, “Uses of collagen IV” (The University of Arkansas for Medical Sciences, priority 2002, dated 2007):

Legend:
[1] = system: collagen IV deposition in renal proximal tubular cells; assay: Newly deposited collagen IV (immunoprecipitation, autoradiography, densitometry); assay type: cell-based, rabbit
Procedure: Immunoprecipitation of newly synthesized and deposited collagen IV was performed using the method of Niki et al., with some modifications (34). On days 1, 4, and 6 after sublethal S-(1,2-dichlorovinyl)-L-cysteine injury, renal proximal tubular cells were metabolically labeled for 24 hours with 25 μCi/ml of [^35S]-L-methionine. Cell monolayers were washed with PBS, solubilized for 30 minutes in lysis buffer (20 mM Tris-HCl (pH 8.8), 2 mM EDTA, 0.2 mM PMSF, 10 mM N-ethylmaleimide, 1% Triton X-100, 1% sodium deoxycholic acid, 150 mM NaCl, and 1 mM EGTA) containing protease inhibitors (25 μg/ml pepstatin A, 12.5 μg/ml leupeptin, 12.5 μg/ml aprotinin), and centrifuged at 15,000×g for 10 minutes at 4° C. The resulting supernatants (soluble fraction, cell-associated collagen) were transferred to fresh tubes, snap frozen in liquid N2, and stored at −80° C. Pelleted material (insoluble fraction, ECM-associated collagen) was resuspended in pellet solubilization buffer (20 mM Tris-HCl (pH 8.8), 2 mM EDTA, 0.2 mM PMSF, 10 mM N-ethylmaleimide, 1% sodium dodecyl sulfate, and 10 mM dithiothreitol), sonicated, boiled for 5 minutes, and incubated in the presence of iodoacetamide (25 mM) for 30 minutes at 37° C. with shaking. Samples were centrifuged at 15,000×g for 10 minutes at 4° C. Supernatants were then transferred to fresh microcentrifuge tubes, snap frozen in liquid N2, and stored at −80° C. Protein concentration in cell-associated and ECM-associated fractions was determined using a Coomassie protein microassay (Pierce, Rockford, Ill.) with BSA as the standard. Sample aliquots equaling 0.5 mg of total protein were diluted 3-fold in immunoprecipitation buffer (20 mM Tris-HCl (pH 8.8), 2 mM EDTA, 0.2 mM PMSF, 10 mM N-ethylmaleimide) and precleared with 20 μl (50% slurry) of Protein G-agarose beads for 2 hours. Samples were then incubated overnight with 0.05 mg of an anti-collagen IV monoclonal antibody (clone M3F7) at 4° C. with vigorous shaking. Samples were incubated for 2 hours at 4° C. with shaking in the presence of goat anti-mouse IgG at a concentration in two-fold excess of that of the primary antibody. Immune complexes were precipitated for 2 hours at 4° C. with shaking using 40 μl (50% slurry) of Protein G-agarose beads.
To collect the collagen IV immune complexes, samples were centrifuged at 15,000×g for 1 minute at 4° C. […]
Radiolabeled collagen IV was separated by SDS-PAGE and visualized by autoradiography (22). […] After film development, densitometry of the resulting 206 kDa bands was calculated using NIH Image software.

[2] = system: prolyl hydroxylase activity in renal proximal tubular cells; assay: Proline hydroxylation in newly synthesized collagen IV (dual labeling); assay type: cell-based, rabbit; details: day 1 after DCVC
Description: Proline hydroxylation in collagen molecules occurs at the 4-trans position. Therefore, the extent of proline hydroxylation can be estimated by the loss of hydrogen from the 4-trans position of proline in the hydroxylation reaction. A previously described dual-labeling technique for the determination of proline hydroxylation was modified using [^14C]-L-proline and 4-[^3H]-L-proline incorporation into collagen IV and measuring the ratio of [^3H]:[^14C] in collagen IV molecules (5). A greater extent of proline hydroxylation at the 4-trans position of proline will result in a decrease in the ratio of [^3H]:[^14C] in newly synthesized collagen molecules due to the loss of [^3H]. Renal proximal tubular cells were dual-labeled for 24 hours with [^14C]-L-proline ([…]) and 4-[^3H]-L-proline (62.5 μCi/ml) immediately after S-(1,2-dichlorovinyl)-L-cysteine exposure. Cell-associated and deposited proteins were harvested, and collagen IV was immunoprecipitated as described above. Immunoprecipitated collagen IV was visualized by SDS-PAGE as described above, the 206 kDa bands in the destained gels were excised, and the protein was extracted with 90% hyamine hydroxide overnight at 37° C. [^14C]-Proline and 4-[^3H]-proline in collagen IV was determined using liquid scintillation spectrometry, and the extent of proline hydroxylation was calculated as the ratio of [^3H]:[^14C].

[3] = 37° C.; cited from earlier work

Row | Structure (SMILES) | collagen IV deposition in DCVC-injured RPTC ([1]; 500 μM AscP, throughout the experiment) | collagen IV deposition by uninjured RPTC, pharmacological vs physiological AscP ([1]; uninjured RPTC, not statistically significant) | ratio of 4-[^3H]-L-proline:[^14C]-L-proline greater than controls ([2]; 500 μM AscP) | stable in culture media [3] [days] | decrease in collagen IV deposition compared to controls ([1]; day 4 after DCVC, physiological AscP, not statistically significant) | collagen IV deposition ([1]; one day after DCVC, 50 μM AscP) | ratio of 4-[^3H]-L-proline:[^14C]-L-proline greater than controls ([2]; 50 μM AscP, higher ratio = decreased proline hydroxylation)
1 | O=C1O[C@H]([C@@H](O)CO)C(O)=C1OP(=O)(O)O [L-ascorbic acid-2-phosphate, L-Ascorbic acid-2-phosphate] | maintained collagen IV deposition at levels equal to that of controls | numerical increase | approximately 45% | ≥ 7 | – | – | –
2 | N[C@@H](CSC(Cl)=CCl)C(=O)O [S-(1,2-dichlorovinyl)-L-cysteine] | – | – | – | – | approximately 50% | significantly inhibited | approximately 80%
